To fix the notation:
B1: Oncolysin 2: second generation molecule: oncolysin N with a synthetic collagen binding domain at the C terminus (protein)
chain: MRIAVICFCLLGITCAGGGPGIPVKQADSGSSEEKGGGPGTPVVPTVDTYDGRGDSVVYGLRSKPAGAAGGPAGPAGPAGPAGPAGP
B2: MRIAVICFCLLGITCAGGGPGIPVKQADSGSSEEKGGGPGTPVVPTVDTY DGRGDSVVYGLRSKKAARGRRAARGRR (protein)
chain: MRIAVICFCLLGITCAGGGPGIPVKQADSGSSEEKGGGPGTPVVPTVDTYDGRGDSVVYGLRSKKAARGRRAARGRR
B3: MRIAVICFCLLGITCAGGGPGIPVKQADSGSSEEKGGGPGTPVVPTVDTY DGRGDSVVYGLRKKKAARGRRAARGRR (protein)
chain: MRIAVICFCLLGITCAGGGPGIPVKQADSGSSEEKGGGPGTPVVPTVDTYDGRGDSVVYGLRKKKAARGRRAARGRR
B4: … VYGLRKKKAARGRRAARGRR (protein)
chain: HHGHHGGHHHPGIPVKQADSGSSEEKGGGPPTPVVPTVDTYDGRGDSVVYGLRKKKAARGRRAARGRR
modifications: His tag

The values that follow come from patent US20050048614A1, “Biosynthetic oncolytic molecules and uses therefor” (Children's Medical Center Corporation, priority 2000, published 2005).

In one test the test system is metastatic tumor cell line. Briefly: apoptosis assay, flow cytometric analysis of propidium iodide uptake. Type of test: cell-based. Particulars: apoptosis assays. An excerpt:
A first generation osteopontin-derived biosynthetic molecule, oncolysin N, was engineered based on the isolation of a domain of osteopontin sufficient to impart pro-apoptotic activity when isolated away from the naturally-occurring osteopontin polypeptide. In particular, the oncolysin N molecule was designed to include the following domains: (1) a signal sequence (i.e., signal peptide), derived in this instance from the native osteopontin amino acid sequence (i.e., amino acids 1-16 of the human osteopontin-B amino acid sequence set forth as SEQ ID NO:1); (2) a golgi processing domain derived from the native osteopontin amino acid sequence (i.e., amino acids 17-30 of the human osteopontin-B amino acid sequence set forth as SEQ ID NO:1); (3) a pro-apoptotic domain comprising contiguous amino acid residues of human osteopontin-B sufficient to induce apoptosis (i.e., amino acids 147-170 of the human osteopontin-B amino acid sequence set forth as SEQ ID NO:1) yet lacking additional osteopontin-B sequences which are unnecessary for apoptotic activity, or alternatively decrease pro-apoptotic activity, of the biosynthetic molecule; and (4) two linker domains, a first linker domain operably linking the signal sequence to the golgi processing domain, and a second linker domain operably linking the golgi processing domain to the pro-apoptotic domain. The signal sequence and golgi processing domain optimize synthesis, processing through the golgi and secretion of the biosynthetic oncolysin N molecule. […]
Cells are grown in culture and treated with varying doses of exogenous oncolysin N. Apoptosis is determined by flow cytometric analysis according to the uptake of propidium iodide. […] DNA cleavage in apoptotic cells is assessed by flow cytometric analysis, as cells containing hypodiploid nuclei bind less propidium iodide than intact nuclei.
Cellular apoptosis can also be determined using standard criteria in the art such as nuclear condensation, chromatin fragmentation, and viability as assessed by Trypan blue exclusion. […]
In general terms: Flow cytometry measures light scatter and fluorescence of single cells or particles in a stream.
In the case of “osteopontin-B: native human osteopontin-B, a preferred splice variant of the human osteopontin gene [reference compound]”, the “apoptotic activity (induction of apoptosis)” value was “no apoptotic activity”. Same read-out and setting: as for B1, the entry is “more effective at promoting apoptosis than oncolysin N”.

A further test has as its system microtubules. Briefly: effect on microtubules in treated cells. Type of test: cell-based.
Conditions: not given
An excerpt:
Based on a detailed understanding of the functional domains of osteopontin and an understanding of the role this multifunctional cytokine plays in the regulation of cellular apoptosis, biosynthetic molecules which mimic distinct functions of osteopontin are provided for use in a variety of therapeutic applications, in particular, in the treatment of cancer and inflammatory conditions such as arthritis. In particular, the biosynthetic molecules are useful in the elimination of abnormal or unwanted cells that express at least an integrin receptor and/or that co-express both an integrin and a CD44 receptor. Many of the biosynthetic molecules/peptides disclosed herein are believed to uncouple integrin signaling form CD 44 signaling, resulting in the stabilization of microtubules by down stream activation of rhoB. […] Cells treated with these molecules organize the arrays of disorganized microtubules into parallel bundles and freeze the normal, microtubular, mitotic bundle. As a result, the treated cells form several more asters at various locations with the cell, serving to further strengthen the cell's structure and preventing cell separation.
Many of the biosynthetic molecules/peptides disclosed herein are believed to uncouple integrin signaling form CD 44 signaling. […] Cells treated with these molecules organize the arrays of disorganized into parallel bundles and freeze the normal, microtubular, mitotic bundle. As a result, the treated cells form several more asters at various locations with the cell, serving to further strengthen the cell's structure and preventing cell separation.
As for “GIPVKQADSGSSEEKGGGPPTPVVPTVDTYDGRGDSVVYGLRKKKAARG RRAARGRR (GIPVKQADSGSSEEKGGGPPTPVVPTVDTYDGRGDSVVYGLRKKKAARGRRAARGRR) [SEQ ID NO:10]”, the capping of microtubules result was “inhibit the capping of microtubules” and the polymerization of microtubules entry was “induces their unidirectional polymerization”. For “PGIPVKQADSGSSEEKGGGPGTPVVPTVDTYDGRGDSVVYGLRKKKAAR GRRAARGRR (PGIPVKQADSGSSEEKGGGPGTPVVPTVDTYDGRGDSVVYGLRKKKAARGRRAARGRR) [SEQ ID NO:14]”, the capping of microtubules entry was “inhibit the capping of microtubules” and the polymerization of microtubules result is recorded as “induces their unidirectional polymerization”. The corresponding values for “PGIPVKQADSGSSEEKGGGPGTPVVPTVDTYDGRGDSVVYGLRKKKAARGRRAARGRR (PGIPVKQADSGSSEEKGGGPGTPVVPTVDTYDGRGDSVVYGLRKKKAARGRRAARGRR) [SEQ ID NO:15]” are “inhibit the capping of microtubules” and “induces their unidirectional polymerization”.

Take “PYAGRGDSVVYGLKKKNNQKAEPLIGRKKTR [SEQ ID NO:16]”: the capping of microtubules entry is listed as “inhibit the capping of microtubules” and the polymerization of microtubules result is “induces their unidirectional polymerization”. B2: the capping of microtubules result is “inhibit the capping of microtubules” and the polymerization of microtubules entry is on record as “induces their unidirectional polymerization”.

Regarding B3, the capping of microtubules entry was “inhibit the capping of microtubules” and the polymerization of microtubules result is given as “induces their unidirectional polymerization”. The matching figures for B4: “inhibit the capping of microtubules” and “induces their unidirectional polymerization”.
